Results: patent publication USRE40086E1, “Method for treating bacterial infection with novel 7-substituted-9-substituted amino 6-demethyl-6-deoxytetracyclines” (Wyeth Holdings Corporation, priority 1991, dated 2008)

Columns and labels:
[1] = tested on: S. aureus UBMS 90-1 (tetM); test: MIC, agar dilution; format: cell-based; settings: S. aureus UBMS 90-1 TetM; Table IA; unit assumed
E. faecalis ATCC 29212 = test: MIC, agar dilution; format: cell-based; settings: E. faecalis ATCC 29212; Table IA; unit assumed
E. coli UBMS 89-1 (tetM) = test: MIC, agar dilution; format: cell-based; settings: E. coli UBMS 89-1 TetM; Table IA; unit assumed
[2] = tested on: S. aureus ATCC 29213 (Sensitive); test: MIC, agar dilution; format: cell-based; settings: S. aureus ATCC 29213; Table IA; unit assumed
E. coli J2175 = test: MIC, agar dilution (Table IA); format: cell-based; settings: unit assumed
E. coli J3272 Tet sens. = test: MIC, agar dilution (Table IA); format: cell-based; settings: unit assumed
[3] = tested on: S. aureus UBMS 90-3 (Sensitive); test: MIC, agar dilution; format: cell-based; settings: S. aureus UBMS 90-3; Table IA; unit assumed
[4] = tested on: S. aureus IVES 1983 (meth. resistant); test: MIC, agar dilution; format: cell-based; settings: S. aureus IVES 1983; Table IA; unit assumed
[5] = tested on: S. aureus Smith (Sensitive); test: MIC, agar dilution; format: cell-based; settings: S. aureus SMITH (MP); Table IA; unit assumed
E. coli BAJ9003 = test: MIC, agar dilution (Table IA); format: cell-based; settings: unit assumed
E. faecalis 12201 = test: MIC, agar dilution; format: cell-based; settings: Enterococcus 12201; Table IA; unit assumed
S. aureus NEMC 8769/89-4 = test: MIC, agar dilution (Table IA); format: cell-based; settings: unit assumed
S. aureus ROSE (MP) = test: MIC, agar dilution (Table IA); format: cell-based; settings: unit assumed
[6] = tested on: S. aureus UBMS 90-2 (tetM); test: MIC, agar dilution; format: cell-based; settings: S. aureus UBMS 90-2 TetM; Table IA; unit assumed
[7] = tested on: S. aureus UBMS 88-5 (tetM); test: MIC, agar dilution; format: cell-based; settings: S. aureus UBMS 88-5 TetM; Table IA; unit assumed
E. coli UBMS 88-1 (tetB) = test: MIC, agar dilution; format: cell-based; settings: E. coli UBMS 88-1 TetB; Table IA; unit assumed
E. coli J3272 TetC = test: MIC, agar dilution (Table IA); format: cell-based; settings: unit assumed
S. mariescens FDOR 8733 = test: MIC, agar dilution (Table IA); format: cell-based; settings: unit assumed
[8] = tested on: S. aureus UBMS 88-4 (Sensitive); test: MIC, agar dilution; format: cell-based; settings: S. aureus UBMS 88-4; Table IA; unit assumed
E. coli J3272 TetD = test: MIC, agar dilution (Table IA); format: cell-based; settings: unit assumed
E. coli UBMS 90-5 = test: MIC, agar dilution (Table IA); format: cell-based; settings: unit assumed
E. coli ATCC 25922 = test: MIC, agar dilution; format: cell-based; settings: E. coli ATCC 25922; Table IA; unit assumed
[9] = tested on: Ps. acruginosa ATCC 27853; test: MIC, agar dilution (Table IA); format: cell-based; settings: unit assumed
[10] = tested on: S. aureus UBMS 88-7 (tetK); test: MIC, agar dilution; format: cell-based; settings: S. aureus UBMS 88-7 TetK; Table IA; unit assumed
E. coli UBMS 90-4 (tetM) = test: MIC, agar dilution; format: cell-based; settings: E. coli UBMS 90-4 TetM; Table IA; unit assumed
E. coli PRP1 TetA = test: MIC, agar dilution (Table IA); format: cell-based; settings: unit assumed
E. coli MC4100 TetB = test: MIC, agar dilution (Table IA); format: cell-based; settings: unit assumed
[11] = tested on: E. coli UBMS 89-2 (Sensitive); test: MIC, agar dilution; format: cell-based; settings: E. coli UBMS 89-2 Tet Sens.; Table IA; unit assumed
E. coli #311 (MP) = test: MIC, agar dilution (Table IA); format: cell-based; settings: unit assumed
[12] = tested on: X. maltophilia NEMC 87210; test: MIC, agar dilution (Table IA); format: cell-based; settings: unit assumed
[13] = tested on: S. haemolyticus AVAH 88-3; test: MIC, agar dilution; format: cell-based; settings: S. hemolyticus AVHAH 88-3; Table IA; unit assumed
[14] = tested on: Wild Type S30 extract, E. coli strain MRE600 (tetracycline sensitive); test: E. coli in vitro transcription and protein translation, 35S-methionine incorporation (Table VIII)
[15] = tested on: TetM S30 extract, derivative of E. coli MRE600 containing the tetM determinant; test: as above
[16] = tested on: S. aureus IVES 2943 (meth. resistant); test: MIC, agar dilution; format: cell-based; settings: S. aureus IVES 2943; Table IA; unit assumed

Row | Compound | Antibacterial activity (MIC) [1] | Antibacterial activity (MIC) (E. faecalis ATCC 29212) | Antibacterial activity (MIC) (E. coli UBMS 89-1 (tetM)) | Antibacterial activity (MIC) [2] | Antibacterial activity (MIC) (E. coli J2175) | Antibacterial activity (MIC) (E. coli J3272 Tet sens.) | Antibacterial activity (MIC) [3] | Antibacterial activity (MIC) [4] | Antibacterial activity (MIC) [5] | Antibacterial activity (MIC) (E. coli BAJ9003) | Antibacterial activity (MIC) (E. faecalis 12201) | Antibacterial activity (MIC) (S. aureus NEMC 8769/89-4) | Antibacterial activity (MIC) (S. aureus ROSE (MP)) | Antibacterial activity (MIC) [6] | Antibacterial activity (MIC) [7] | Antibacterial activity (MIC) (E. coli UBMS 88-1 (tetB)) | Antibacterial activity (MIC) (E. coli J3272 TetC) | Antibacterial activity (MIC) (S. mariescens FDOR 8733) | Antibacterial activity (MIC) [8] | Antibacterial activity (MIC) (E. coli J3272 TetD) | further results
1 | CN(C)c1cc(NC(=O)Cn2ccnc2)c(O)c2c1CC1CC3[C@H](N(C)C)C(O)=C(C(N)=O)C(=O)[C@@]3(O)C(O)=C1C2=O.Cl.Cl (stereo partly drawn) [VV, [7S-(7alpha,10aalpha)]-N-[9-(Aminocarbonyl)-4,7-bis(dimethylamino)-5,5a,6,6a,7,10,10a,12-octahydro-1,8,10a,11-tetrahydroxy-10,12-dioxo-2-naphthacenyl]-1H-imidazole-1-acetamide dihydrochloride] | 32 µg/mL | 4 µg/mL | > 32 µg/mL | 8 µg/mL | > 32 µg/mL | > 32 µg/mL | 4 µg/mL | > 32 µg/mL | 4 µg/mL | 1 µg/mL | 4 µg/mL | 4 µg/mL | > 32 µg/mL | 16 µg/mL | 32 µg/mL | > 32 µg/mL | > 32 µg/mL | > 32 µg/mL | 8 µg/mL | > 32 µg/mL | Antibacterial activity (MIC) (E. coli UBMS 90-5): > 32 µg/mL; Antibacterial activity (MIC) (E. coli ATCC 25922): > 32 µg/mL; Antibacterial activity (MIC) [9]: > 32 µg/mL; Antibacterial activity (MIC) [10]: 32 µg/mL; Antibacterial activity (MIC) (E. coli UBMS 90-4 (tetM)): > 32 µg/mL; Antibacterial activity (MIC) (E. coli PRP1 TetA): > 32 µg/mL; Antibacterial activity (MIC) (E. coli MC4100 TetB): > 32 µg/mL; Antibacterial activity (MIC) [11]: > 32 µg/mL; Antibacterial activity (MIC) (E. coli #311 (MP)): > 32 µg/mL; Antibacterial activity (MIC) [12]: > 32 µg/mL; Antibacterial activity (MIC) [13]: > 32 µg/mL; % INHIBITION Wild Type S30 ([14]; 0.06 mg/ml): 91%; % INHIBITION Wild Type S30 ([14]; 0.2 mg/ml): 93%; % INHIBITION Wild Type S30 ([14]; 1.0 mg/ml): 99%; % INHIBITION TetM S30 ([15]; 0.06 mg/ml): 79%; % INHIBITION TetM S30 ([15]; 0.2 mg/ml): 92%; % INHIBITION TetM S30 ([15]; 1.0 mg/ml): 98%; Antibacterial activity (MIC) [16]: > 32 µg/mL
2 | CCNCC(=O)Nc1cc(N(C)C)c2c(c1O)C(=O)C1=C(O)[C@]3(O)C(=O)C(C(N)=O)=C(O)[C@@H](N(C)C)C3CC1C2.Cl.Cl (stereo partly drawn) [OO] | 1 µg/mL | 0.25 µg/mL | 1 µg/mL | 1 µg/mL | 1 µg/mL | 1 µg/mL | 0.5 µg/mL | 8 µg/mL | 0.5 µg/mL | 0.12 µg/mL | 0.25 µg/mL | 0.5 µg/mL | 8 µg/mL | 0.5 µg/mL | 1 µg/mL | 1 µg/mL | 2 µg/mL | 8 µg/mL | 1 µg/mL | 0.5 µg/mL | Antibacterial activity (MIC) (E. coli UBMS 90-5): 1 µg/mL; Antibacterial activity (MIC) (E. coli ATCC 25922): 1 µg/mL; Antibacterial activity (MIC) [9]: 16 µg/mL; Antibacterial activity (MIC) [10]: 8 µg/mL; Antibacterial activity (MIC) (E. coli UBMS 90-4 (tetM)): 0.5 µg/mL; Antibacterial activity (MIC) (E. coli PRP1 TetA): 2 µg/mL; Antibacterial activity (MIC) (E. coli MC4100 TetB): 1 µg/mL; Antibacterial activity (MIC) [11]: 1 µg/mL; Antibacterial activity (MIC) (E. coli #311 (MP)): 1 µg/mL; Antibacterial activity (MIC) [12]: 2 µg/mL; Antibacterial activity (MIC) [13]: 1 µg/mL; % INHIBITION Wild Type S30 ([14]; 0.06 mg/ml): 94%; % INHIBITION Wild Type S30 ([14]; 0.2 mg/ml): 97%; % INHIBITION Wild Type S30 ([14]; 1.0 mg/ml): 99%; % INHIBITION TetM S30 ([15]; 0.06 mg/ml): 87%; % INHIBITION TetM S30 ([15]; 0.2 mg/ml): 95%; % INHIBITION TetM S30 ([15]; 1.0 mg/ml): 99%; Antibacterial activity (MIC) [16]: 8 µg/mL
3 | CN(C)c1cc(NC(=O)CNC2CC2)c(O)c2c1CC1CC3C(N(C)C)C(O)=C(C(N)=O)C(=O)C3(O)C(O)=C1C2=O.Cl.Cl (stereo not drawn) [QQ, [4S-(4alpha,12aalpha))-9[[(Cyclopropylamino)acetyl)amino]-4,7-Bis(dimethylamino)-1,4,4a,5,5a,6,11,12a-octahydro-3,10,12,12a-tetrahydroxy-1,11-dioxo-2-naphthacenecarboxamide dihydrochloride] | 0.5 µg/mL | 0.25 µg/mL | 1 µg/mL | 0.5 µg/mL | 2 µg/mL | 2 µg/mL | 0.5 µg/mL | 8 µg/mL | 0.25 µg/mL | 0.25 µg/mL | 0.5 µg/mL | 0.12 µg/mL | 16 µg/mL | 0.5 µg/mL | 0.5 µg/mL | 4 µg/mL | 8 µg/mL | > 32 µg/mL | 0.5 µg/mL | 2 µg/mL | Antibacterial activity (MIC) (E. coli UBMS 90-5): 2 µg/mL; Antibacterial activity (MIC) (E. coli ATCC 25922): 2 µg/mL; Antibacterial activity (MIC) [9]: > 32 µg/mL; Antibacterial activity (MIC) [10]: 4 µg/mL; Antibacterial activity (MIC) (E. coli UBMS 90-4 (tetM)): 2 µg/mL; Antibacterial activity (MIC) (E. coli PRP1 TetA): 32 µg/mL; Antibacterial activity (MIC) (E. coli MC4100 TetB): 2 µg/mL; Antibacterial activity (MIC) [11]: 2 µg/mL; Antibacterial activity (MIC) (E. coli #311 (MP)): 2 µg/mL; Antibacterial activity (MIC) [12]: 2 µg/mL; Antibacterial activity (MIC) [13]: 2 µg/mL; % INHIBITION Wild Type S30 ([14]; 0.06 mg/ml): 92%; % INHIBITION Wild Type S30 ([14]; 0.2 mg/ml): 97%; % INHIBITION Wild Type S30 ([14]; 1.0 mg/ml): 99%; % INHIBITION TetM S30 ([15]; 0.06 mg/ml): 85%; % INHIBITION TetM S30 ([15]; 0.2 mg/ml): 95%; % INHIBITION TetM S30 ([15]; 1.0 mg/ml): 99%; Antibacterial activity (MIC) [16]: 16 µg/mL
